# Measurements published in US20170191032A1, “IDENTIFICATION AND ISOLATION OF NEURAL STEM CELLS AND NEUROSPHERE INITIATING CELLS” (The Board of Regents of the University of Texas System, priority 2014, published 2017).
# Key:
# [1] = tested on: GEPCOT cells; settings: 3.0 mM EDTA in staining medium (slight excess over 2.7 mM divalent cations)
# Protocol: In the inventors' experiments, the staining medium the inventors employed contained 3.0 mM EDTA, enough to neutralize 2.7 mM of divalent cations in the staining medium (with a small surplus). […] The inventors pre-diluted 0.5M EDTA (made from Na2H2EDTA, pH 8.0) to 77.7 mM (309 mOsm) before adding it to the staining medium.
# SVZ cell preparation. SVZs from adult (8-60 week old) mice were dissected as described (Mirzadeh et al., 2010). SVZs were minced and digested with 300 μl of trypsin solution (Ca and Mg-free HBSS, 10 mM HEPES, 0.5 mM EDTA, 0.25 mg/mL trypsin (EMD Millipore), 10 μg/mL DNase I (Roche), pH 7.6) at 37° C. for 20 minutes. Digestion was quenched with three volumes of staining medium (440 ml Leibovitz L-15 medium, 50 ml water, 5 ml 1M HEPES pH 7.3-7.4, 5 ml 100× Pen-Strep, 20 ml 77.7 mM EDTA pH 8.0 [prepared from Na2H2EDTA], 1 g bovine serum albumin [Sigma A7030]) containing 100 μg/ml trypsin inhibitor (Sigma T6522) and 10 μg/ml DNase I (Roche).
# [2] = tested on: GEPCOT cells; experiment: TMZ regeneration assay: GEPCOT cells per SVZ by flow cytometry; settings: for number of unlabeled GEPCOTs per SVZ: Ascl1CreERT2 reporter mice, tamoxifen then TMZ
# Protocol: TMZ regeneration assay. TMZ (temozolomide; Sigma T2577) was dissolved in 25% DMSO/75% 0.9% saline solution at 10 mg/ml by heating briefly to 90-100° C., then shaking and rapidly cooling. Mice were injected at 100 mg/kg/day for three consecutive days then allowed to recover for 3-90 days before analysis. Mice with enlarged spleen or thymus (sometimes present at 90 days after TMZ treatment) were excluded from analysis.
# To stain SVZ cells with the combination of markers used to isolate GEPCOT or pre-GEPCOT cells, dissociated SVZ cells were centrifuged (220 g, 4 min, 4° C.) and resuspended in 100 μl staining medium per brain. Then the following antibodies were added: BV421 anti-Ter119 (Biolegend 116233, 1/100), BV421 anti-CD45 (Biolegend 103133, 1/100), APC-eFluor 780 anti-CD24 (eBioscience 47-0242-82, 1/200), 5A5 ascites (anti-PSA-NCAM; Developmental Studies Hybridoma Bank, 1/100), O4 ascites (1/200), anti-PlexinB2 (eBioscience 14-5665-82, 1/100), biotinylated anti-EGFR (R&D Systems BAF1280, 1/200), anti-Glast (Miltenyi Biotec 130-095-822, 1/10), and DAPI (50 μg/ml, 1/100). After adding antibodies, the cells were incubated on ice for 45 minutes, then washed with 2.5 ml fresh staining medium and pelleted (220 g for 4 minutes at 4° C.) and resuspended in secondary antibodies. Typically, the inventors used the following combination: APC anti-mouse IgG2a (Jackson Immunoresearch 115-135-206,1/200), PE anti-hamster IgG (Jackson Immunoresearch 127-115-160, 1/200), PE-Cy7 anti-mouse IgM (eBioscience 25-5790-82, 1/100), BV605-Streptavidin (BD Biosciences 563260, 1/200). However, when analyzing mice expressing tdTomato, the inventors used the following alternative secondary antibodies: PerCP-eFluor 710 anti-mouse IgG (eBioscience 46-4010-82, 1/100), APC anti-hamster IgG (Jackson Immunoresearch 127-135-160, 1/200), PE-Cy7 anti-mouse IgM (eBioscience 25-5790-82, 1/100), and BV605-Streptavidin (BD Biosciences 563260, 1/200). Cells were stained with secondary antibodies on ice for 45 minutes, then washed and pelleted as above, and analyzed on the FACSAria in a volume of 200 μl per brain.
# [3] = tested on: NICs; experiment: TMZ regeneration assay: neurosphere-initiating cells (NICs); assay type: in vivo, mouse
# Text: (§1) All data represent mean ±s.d.
# (§2) The cell suspension was then filtered through a 45-micron mesh, counted on a hemocytometer, and added to culture or processed for flow cytometry. […] For adherent colony formation, Tg(Ubc-GFP) SVZ cells were co-cultured with 80-90% confluent nontransgenic neonatal SVZ-derived astrocytes isolated and passaged twice prior to the experiment. GFP fluorescence was used to assess colony formation after 12-20 days in culture.
# [4] = Body mass after TMZ treatment; assay type: in vivo, mouse; settings: three days after TMZ, 100 mg/kg/day i.p. for 3 consecutive days
# [5] = tested on: SVZ cells; experiment: TMZ regeneration assay: total and dividing (BrdU) SVZ cells; assay type: in vivo, mouse
# Text: as §1
# [6] = tested on: adult SVZ cells; experiment: Neurosphere formation (clonogenesis) of adult SVZ cells with culture additives; assay type: cell-based, mouse
# Text: Rock inhibitor (Y-27632) and IGF1 increase clonogenesis after sorting. The process of being sorted has a negative effect on neurosphere formation from adult SVZ cells: at the beginning of their experiments the inventors observed a 3-fold loss of activity in sorted live SVZ cells compared to crude unsorted cells. […] The inventors wondered how to sort gently to overcome the fragility of adult SVZ cells.
# (§3) The mechanisms underlying these effects are unclear but may involve promotion of cell survival after sorting or repression of BMP signaling (Hsieh et al., 2004). When using both these culture additives, there was little difference between sorted live SVZ cells and an equal number of cells added to culture by pipette in terms of the numbers of neurospheres they made.
# After adding 10% CEE to the culture medium, sorted cell-derived primary neurospheres were indistinguishable in size and number from neurospheres cultured from cells pipetted into culture.
# as §2
# [7] = tested on: neonatal SVZ cells; experiment: Neurosphere formation of neonatal SVZ cells with culture additive; assay type: cell-based, mouse; settings: 10 μM
# Text: as §3
# [8] = three days after TMZ (100 mg/kg/day i.p., 3 days)
molecule,measurement,setting,value
O=C(O)CN(CCN(CC(=O)O)CC(=O)O)CC(=O)O [EDTA],effect on the yield of GEPCOT cells,[1],2-3 fold
"Cn1nnc2c(C(N)=O)ncn2c1=O [TMZ, temozolomide]","GEPCOTs recovered, % of normal levels",[2]; 16 days after TMZ treatment,32 % of normal
same,"GEPCOTs recovered, % of normal levels",[2]; 90 days after TMZ treatment,55 % of normal
same,number of unlabeled GEPCOTs per SVZ,[2]; 3 days after TMZ,120±50
same,number of unlabeled GEPCOTs per SVZ,[2]; 35 days after TMZ,640±210
same,GEPCOTs remaining relative to saline-treated control mice,[2]; three days after TMZ treatment,10%
same,"NICs recovered, % of normal levels",[3]; 16 days after TMZ treatment,20 % of normal
same,"NICs recovered, % of normal",[3]; 90 days after TMZ,55 % of normal
same,NICs remaining relative to saline-treated control mice,[3]; three days after TMZ,0.7%
same,loss of body mass as compared to before TMZ treatment,[4],less than 3%
same,"number of dividing SVZ cells, recovery as % of normal",[5]; 90 days after TMZ treatment,50 % of normal
same,"reduction in the number of dividing SVZ cells, based on BrdU incorporation",[5]; [8],80%
same,reduction in the total number of cells per SVZ,[5]; [8],23%
IGF1: IGF-1 growth factor (R&D Systems 291-G1) added to culture medium,clonogenesis after sorting,"[6]; 20 ng/ml in culture medium, in addition to Y-27632",further improved clonogenesis after sorting
Y-27632 hydrochloride,effect on neurosphere formation,[7]; crude neonatal SVZ cells,did not have any effect
same,effect on neurosphere formation,[7]; sorted neonatal SVZ cells,did not have any effect
same,increase in neurosphere formation,"[6]; 10 μM in culture medium, adult cells after sorting",approximately two-fold
same,effect on neurosphere formation,"[6]; 10 μM, adult SVZ cells pipetted into the culture medium",did not have any effect
